Laboratory results reported in ChEMBL document CHEMBL1201862, “PubChem BioAssay data set” (2004).
Active and inactive are the calls of the source.

Experiments:
Paired box protein Pax-8 = Paired box protein Pax-8 (Homo sapiens, UniProt Q06710); test: inhibitors of PAX8-driven TPO luciferase reporter, dose response, RMG-I cells, cherry-pick (AID 687027); format: functional, cell-based;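 also: luciferase reporter driven by Pax8 target thyroperoxidase promoter measured by SteadyGlo luminescence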
[1] = system: Streptococcus sp. 'group A'; test: growth inhibition of control SK(-) GAS strain, dose response, counter-screen for streptokinase expression inhibitor project, luminescence, kanamycin, BacTiterGlo, confirmation (AID 1900); format: functional, organism-based
[2] = NIH-3T3 fibroblast cytotoxicity, dose response, cytotoxicity control, cell-based, fluorescence, Alamar Blue, secondary assay (AID 2327); format: functional;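 also: NIH-3T3 mouse fibroblasts cultured with fluconazole at 8 µg/mL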
Streptokinase A = target: T1, Streptokinase A (Streptococcus pyogenes serotype M1, UniProt P10520); test: S. pyogenes streptokinase expression inhibitors, potency, dose response, plasminogen activation absorbance, OD405 (AID 1914); format: functional, Streptococcus pyogenes M1 GAS;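 also: secreted streptokinase activity via plasminogen activation per viability signal from cell pellet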
T1 sequence (P10520 whole entry): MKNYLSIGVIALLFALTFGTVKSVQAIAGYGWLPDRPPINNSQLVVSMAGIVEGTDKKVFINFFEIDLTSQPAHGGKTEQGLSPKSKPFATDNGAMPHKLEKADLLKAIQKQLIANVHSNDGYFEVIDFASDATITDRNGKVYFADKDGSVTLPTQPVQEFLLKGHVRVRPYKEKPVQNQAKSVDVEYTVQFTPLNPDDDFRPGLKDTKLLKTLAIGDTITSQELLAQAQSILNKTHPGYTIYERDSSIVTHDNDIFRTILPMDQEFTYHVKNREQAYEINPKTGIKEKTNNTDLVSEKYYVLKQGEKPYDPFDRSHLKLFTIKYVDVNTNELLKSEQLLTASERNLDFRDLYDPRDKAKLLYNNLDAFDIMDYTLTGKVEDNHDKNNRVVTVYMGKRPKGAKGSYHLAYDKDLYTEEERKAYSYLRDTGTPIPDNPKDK

[3] = HEp-2 cell cytotoxicity, dose response, cytotoxicity control for RSV inhibitor project, HTS (AID 2410); format: functional; settings: human respiratory syncytial virus
Protein RecA = target: T2, Protein RecA (Mycobacterium tuberculosis, UniProt P9WHJ3); test: Fluorescence Cell-Free Homogeneous Dose Retest to Identify Inhibitors of RecA-Intein Splicing Activity. [Related pubchem assays (depositor defined):AID2097, AID2223, AID489010, AID492950]; format: functional
T2 sequence (P9WHJ3 whole entry): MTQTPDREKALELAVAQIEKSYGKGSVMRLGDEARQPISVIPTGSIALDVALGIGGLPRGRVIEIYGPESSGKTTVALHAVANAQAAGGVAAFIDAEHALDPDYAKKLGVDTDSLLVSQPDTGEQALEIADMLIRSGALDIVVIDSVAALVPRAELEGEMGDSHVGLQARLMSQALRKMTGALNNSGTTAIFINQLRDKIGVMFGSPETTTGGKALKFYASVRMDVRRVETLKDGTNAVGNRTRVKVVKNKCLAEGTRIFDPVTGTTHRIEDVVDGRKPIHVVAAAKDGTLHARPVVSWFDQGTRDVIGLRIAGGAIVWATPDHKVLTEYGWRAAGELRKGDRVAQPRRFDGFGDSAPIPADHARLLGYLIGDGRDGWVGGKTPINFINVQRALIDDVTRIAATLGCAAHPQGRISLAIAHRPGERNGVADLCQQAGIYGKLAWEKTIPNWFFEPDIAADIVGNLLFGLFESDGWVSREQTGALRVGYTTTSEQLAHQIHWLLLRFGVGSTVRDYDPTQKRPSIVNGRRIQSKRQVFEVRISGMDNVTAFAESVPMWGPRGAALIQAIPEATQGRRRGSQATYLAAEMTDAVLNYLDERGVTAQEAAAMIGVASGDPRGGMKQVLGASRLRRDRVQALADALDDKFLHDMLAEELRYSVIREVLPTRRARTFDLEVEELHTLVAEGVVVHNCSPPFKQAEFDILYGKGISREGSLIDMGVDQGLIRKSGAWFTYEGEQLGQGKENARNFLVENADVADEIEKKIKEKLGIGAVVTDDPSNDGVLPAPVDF

[4] = C. albicans growth with fluconazole, confirmation, fluorescence, retest (AID 2467); format: functional, cell-based
[5] = target: T3, Orexin/Hypocretin receptor type 1 (Homo sapiens, UniProt O43613); test: Homogeneous Time Resolved Fluorescence (HTRF)-based cell-based high throughput dose response assay for antagonists of the orexin 1 receptor (OX1R; HCRTR1). [Related pubchem assays (depositor defined):AID434989, AID435008, AID463079, AID485270, AID492963, AID492964, AID492965, AID493232, AID504717, AID504718]; format: functional
T3 sequence (O43613 whole entry): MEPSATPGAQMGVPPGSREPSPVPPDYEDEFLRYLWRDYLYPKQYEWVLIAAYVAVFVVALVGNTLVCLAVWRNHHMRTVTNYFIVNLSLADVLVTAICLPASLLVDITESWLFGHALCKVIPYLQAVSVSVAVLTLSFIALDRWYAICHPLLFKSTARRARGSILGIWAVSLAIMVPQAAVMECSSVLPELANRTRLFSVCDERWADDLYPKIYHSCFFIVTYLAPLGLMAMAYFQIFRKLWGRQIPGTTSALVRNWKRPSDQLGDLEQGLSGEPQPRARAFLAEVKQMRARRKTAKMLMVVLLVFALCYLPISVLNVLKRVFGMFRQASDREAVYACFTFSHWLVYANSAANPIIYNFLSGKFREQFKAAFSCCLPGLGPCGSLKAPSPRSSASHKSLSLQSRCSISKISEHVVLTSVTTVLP

[6] = non-specific cell cytotoxicity, dose response, cytotoxicity control for PAX8 inhibitor project, plate reader, dry powder samples (AID 743021); format: functional, cell-based
Orexin receptor type 2 [7] = target: T4, Orexin receptor type 2 (Homo sapiens, UniProt O43614); test: Counterscreen assay for antagonists of the orexin 1 receptor (OX1R; HCRTR1): Homogeneous Time Resolved Fluorescence (HTRF)-based cell-based dose response assay for antagonists of the orexin 2 receptor (OX2R; HCRTR2), run by assay provider.; format: functional
T4 sequence (O43614 whole entry): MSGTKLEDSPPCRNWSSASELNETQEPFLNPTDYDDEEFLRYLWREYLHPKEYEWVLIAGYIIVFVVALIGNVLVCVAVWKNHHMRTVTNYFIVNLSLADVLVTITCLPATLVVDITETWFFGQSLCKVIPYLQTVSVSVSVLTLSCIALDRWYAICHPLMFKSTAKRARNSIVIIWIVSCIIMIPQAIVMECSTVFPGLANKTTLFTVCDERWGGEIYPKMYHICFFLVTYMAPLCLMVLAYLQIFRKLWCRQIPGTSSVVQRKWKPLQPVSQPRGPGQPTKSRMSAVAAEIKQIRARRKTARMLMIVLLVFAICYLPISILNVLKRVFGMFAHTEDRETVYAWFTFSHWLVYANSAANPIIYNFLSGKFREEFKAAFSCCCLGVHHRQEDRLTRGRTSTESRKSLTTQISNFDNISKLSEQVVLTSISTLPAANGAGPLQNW

[8] = target: T3, Orexin/Hypocretin receptor type 1; test: Fluorescence-based cell-based high throughput dose response assay for antagonists of the orexin 1 receptor (OX1R; HCRTR1). [Related pubchem assays (depositor defined):AID434989, AID435008, AID463079, AID485270, AID492963, AID492964, AID492965, AID493232, AID504717, AID504718]; format: functional
Streptococcus = test: Group A Streptococcus viability loss, dose response, counter-screen for streptokinase expression inhibitor project, luminescence, BacTiterGlo (AID 1915); format: functional, organism-based;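 also: potency for reduction of bacterial viability or growth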
CHO-K1 = test: (§1) Counterscreen for antagonists of the orexin 1 receptor (OX1R; HCRTR1): Homogeneous time resolved fluorescence (HTRF)-based cell-based dose response assay to identify antagonists of the parental CHO-K1 cell line. [Related pubchem assays (depositor defined):AID434989, AID435008, AID463079, AID485270, AID492963, AID492964, AID492965, AID493232, AID504699, AID504701]; format: functional; settings: Cricetulus griseus
[9] = as §1, with “Fluorescence-based” for “Homogeneous time resolved fluorescence (HTRF)-based”, “cell-based high throughput” for “cell-based”, “CHO” for “CHO-K1”; format: functional
[10] = target: T5, Replicative DNA helicase DnaB (Mycobacterium tuberculosis, UniProt P9WMR3); test: DnaB intein splicing inhibitors, dose response, biochemical, cell-free fluorescence (AID 449749); format: functional
T5 sequence (P9WMR3 whole entry): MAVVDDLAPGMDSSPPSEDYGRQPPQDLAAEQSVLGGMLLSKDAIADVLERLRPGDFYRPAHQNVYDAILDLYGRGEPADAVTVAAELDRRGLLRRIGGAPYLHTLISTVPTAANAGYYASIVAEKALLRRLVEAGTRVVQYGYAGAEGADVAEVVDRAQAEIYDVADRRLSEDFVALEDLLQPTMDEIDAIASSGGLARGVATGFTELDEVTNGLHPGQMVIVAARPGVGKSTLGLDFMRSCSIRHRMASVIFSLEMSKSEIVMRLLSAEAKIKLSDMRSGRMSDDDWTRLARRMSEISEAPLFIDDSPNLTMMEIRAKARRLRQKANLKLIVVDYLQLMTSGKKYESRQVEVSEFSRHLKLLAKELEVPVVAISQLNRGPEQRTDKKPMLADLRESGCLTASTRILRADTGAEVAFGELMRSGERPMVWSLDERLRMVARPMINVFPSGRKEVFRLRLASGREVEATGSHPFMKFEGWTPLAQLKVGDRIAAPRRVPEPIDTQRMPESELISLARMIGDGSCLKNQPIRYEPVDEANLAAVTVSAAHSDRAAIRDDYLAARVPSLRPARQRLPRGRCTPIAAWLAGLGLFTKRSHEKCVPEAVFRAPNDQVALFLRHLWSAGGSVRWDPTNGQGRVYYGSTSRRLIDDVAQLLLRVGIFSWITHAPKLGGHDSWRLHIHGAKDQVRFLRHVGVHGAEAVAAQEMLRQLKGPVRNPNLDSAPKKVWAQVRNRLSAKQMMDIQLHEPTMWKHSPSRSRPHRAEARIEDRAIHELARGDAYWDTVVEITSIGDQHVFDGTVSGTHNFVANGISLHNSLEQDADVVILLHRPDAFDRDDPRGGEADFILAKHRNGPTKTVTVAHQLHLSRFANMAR

INS1 = test: beta cell apoptosis inhibitors, cytokine rescue, dose response, luminescence, retest (AID 449756); format: functional, cell-based; settings: Rattus norvegicus;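 also: cell death triggered by IL-1 beta plus TNF-alpha plus IFN-gamma mixture; protective hits raise ATP signal compared with cytokine alone wells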
Orexin receptor type 2 [11] = target: T4, Orexin receptor type 2; test: Counterscreen assay for antagonists of the orexin 1 receptor (OX1R; HCRTR1): Fluorescence-based cell-based dose response assay for antagonists of the orexin 2 receptor (OX2R; HCRTR2), run by assay provider.; format: functional
[12] = target: Cyclin-dependent kinase 1 (Homo sapiens, UniProt P06493); format: functional;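 also: Kinome-wide panel profiling, with the target listed as panel member CDC2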
Cyclin-dependent kinase 1, sequence (P06493 whole entry): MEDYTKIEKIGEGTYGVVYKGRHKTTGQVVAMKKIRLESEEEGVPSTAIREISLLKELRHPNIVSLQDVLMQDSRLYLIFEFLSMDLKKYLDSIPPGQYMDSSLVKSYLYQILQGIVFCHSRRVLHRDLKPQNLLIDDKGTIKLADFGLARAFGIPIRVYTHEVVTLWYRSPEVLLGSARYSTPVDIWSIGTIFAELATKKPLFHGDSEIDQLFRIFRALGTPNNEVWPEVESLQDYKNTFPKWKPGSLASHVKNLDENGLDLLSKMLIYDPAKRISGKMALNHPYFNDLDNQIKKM

[13] = target: Casein kinase II subunit alpha (Homo sapiens, UniProt P68400); format: functional
Casein kinase II subunit alpha, sequence (P68400 whole entry): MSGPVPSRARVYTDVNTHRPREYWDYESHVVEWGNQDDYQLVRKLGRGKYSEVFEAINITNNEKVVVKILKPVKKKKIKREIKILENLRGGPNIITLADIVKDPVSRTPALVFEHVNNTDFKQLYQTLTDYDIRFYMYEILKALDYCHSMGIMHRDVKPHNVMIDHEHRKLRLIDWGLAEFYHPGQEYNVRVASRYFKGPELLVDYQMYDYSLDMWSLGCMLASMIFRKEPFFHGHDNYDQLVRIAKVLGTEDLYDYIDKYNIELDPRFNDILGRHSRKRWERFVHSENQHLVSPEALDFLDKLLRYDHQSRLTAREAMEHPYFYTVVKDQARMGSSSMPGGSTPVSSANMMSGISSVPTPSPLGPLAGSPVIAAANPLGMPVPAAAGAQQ

[14] = target: Fibroblast growth factor receptor 1 (Homo sapiens, UniProt P11362); format: functional
Fibroblast growth factor receptor 1, sequence (P11362 whole entry): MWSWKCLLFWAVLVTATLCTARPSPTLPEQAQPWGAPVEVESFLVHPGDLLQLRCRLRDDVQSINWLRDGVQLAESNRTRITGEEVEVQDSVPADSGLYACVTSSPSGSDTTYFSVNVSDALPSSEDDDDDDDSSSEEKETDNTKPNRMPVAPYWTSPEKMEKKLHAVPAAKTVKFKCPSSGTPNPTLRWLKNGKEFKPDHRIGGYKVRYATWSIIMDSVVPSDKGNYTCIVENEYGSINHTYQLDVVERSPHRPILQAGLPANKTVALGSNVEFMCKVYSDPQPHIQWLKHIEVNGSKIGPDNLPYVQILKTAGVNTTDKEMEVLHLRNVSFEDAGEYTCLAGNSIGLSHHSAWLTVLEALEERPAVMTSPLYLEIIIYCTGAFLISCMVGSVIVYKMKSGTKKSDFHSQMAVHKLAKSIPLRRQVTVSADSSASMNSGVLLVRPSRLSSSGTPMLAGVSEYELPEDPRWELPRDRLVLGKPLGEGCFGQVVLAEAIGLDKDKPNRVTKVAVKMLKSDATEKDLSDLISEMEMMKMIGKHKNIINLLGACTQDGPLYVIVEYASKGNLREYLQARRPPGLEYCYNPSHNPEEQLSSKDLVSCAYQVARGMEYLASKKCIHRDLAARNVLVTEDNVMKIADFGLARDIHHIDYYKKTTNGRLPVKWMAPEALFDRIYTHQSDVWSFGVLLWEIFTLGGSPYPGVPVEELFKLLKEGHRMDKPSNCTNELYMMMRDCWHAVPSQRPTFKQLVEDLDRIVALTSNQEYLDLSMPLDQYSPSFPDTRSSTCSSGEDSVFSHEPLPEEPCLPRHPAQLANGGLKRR

[15] = target: MAP/microtubule affinity-regulating kinase 3 (Homo sapiens, UniProt P27448); format: functional;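 also: MARK3 affinity measured as one member of a kinome panel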
MAP/microtubule affinity-regulating kinase 3, sequence (P27448 whole entry): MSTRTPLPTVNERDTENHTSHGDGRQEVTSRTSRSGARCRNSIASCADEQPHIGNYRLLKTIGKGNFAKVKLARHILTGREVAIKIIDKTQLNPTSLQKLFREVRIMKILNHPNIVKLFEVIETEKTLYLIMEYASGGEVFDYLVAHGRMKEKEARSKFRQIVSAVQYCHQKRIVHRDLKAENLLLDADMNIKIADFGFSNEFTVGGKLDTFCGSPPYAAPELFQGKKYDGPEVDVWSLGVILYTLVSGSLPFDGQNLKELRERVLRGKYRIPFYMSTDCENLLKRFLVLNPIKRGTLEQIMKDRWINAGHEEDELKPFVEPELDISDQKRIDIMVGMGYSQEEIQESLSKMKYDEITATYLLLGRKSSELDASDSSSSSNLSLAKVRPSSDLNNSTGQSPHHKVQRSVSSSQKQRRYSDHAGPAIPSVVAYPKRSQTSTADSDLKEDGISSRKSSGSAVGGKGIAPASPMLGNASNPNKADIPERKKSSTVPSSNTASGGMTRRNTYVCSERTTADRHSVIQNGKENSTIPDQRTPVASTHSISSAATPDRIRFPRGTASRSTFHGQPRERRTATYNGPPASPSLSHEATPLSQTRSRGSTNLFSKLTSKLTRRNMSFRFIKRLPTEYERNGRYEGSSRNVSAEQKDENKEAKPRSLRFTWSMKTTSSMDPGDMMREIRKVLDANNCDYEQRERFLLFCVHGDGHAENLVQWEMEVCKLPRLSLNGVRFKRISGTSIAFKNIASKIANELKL

Aurora kinase A = Aurora kinase A (Homo sapiens, UniProt O14965); format: functional;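 also: value from the Navigating the Kinome kinase panel profiling, panel entry STK6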
Aurora kinase A, sequence (O14965 whole entry): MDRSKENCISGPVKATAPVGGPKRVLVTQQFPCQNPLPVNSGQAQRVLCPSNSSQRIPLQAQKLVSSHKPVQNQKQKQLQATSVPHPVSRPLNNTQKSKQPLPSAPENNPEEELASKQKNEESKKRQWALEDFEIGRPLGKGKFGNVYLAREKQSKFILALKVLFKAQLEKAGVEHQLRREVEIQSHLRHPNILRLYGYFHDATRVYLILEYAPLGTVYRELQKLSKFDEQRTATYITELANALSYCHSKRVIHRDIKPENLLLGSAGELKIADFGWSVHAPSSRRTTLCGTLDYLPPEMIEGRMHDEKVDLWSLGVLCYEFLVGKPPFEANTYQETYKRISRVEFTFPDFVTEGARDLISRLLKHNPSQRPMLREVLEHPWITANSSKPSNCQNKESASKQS

[16] = target: Serine/threonine-protein kinase Chk2 (Homo sapiens, UniProt O96017); format: functional;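 also: CHEK2 entry within a kinome-wide screening panel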
Serine/threonine-protein kinase Chk2, sequence (O96017 whole entry): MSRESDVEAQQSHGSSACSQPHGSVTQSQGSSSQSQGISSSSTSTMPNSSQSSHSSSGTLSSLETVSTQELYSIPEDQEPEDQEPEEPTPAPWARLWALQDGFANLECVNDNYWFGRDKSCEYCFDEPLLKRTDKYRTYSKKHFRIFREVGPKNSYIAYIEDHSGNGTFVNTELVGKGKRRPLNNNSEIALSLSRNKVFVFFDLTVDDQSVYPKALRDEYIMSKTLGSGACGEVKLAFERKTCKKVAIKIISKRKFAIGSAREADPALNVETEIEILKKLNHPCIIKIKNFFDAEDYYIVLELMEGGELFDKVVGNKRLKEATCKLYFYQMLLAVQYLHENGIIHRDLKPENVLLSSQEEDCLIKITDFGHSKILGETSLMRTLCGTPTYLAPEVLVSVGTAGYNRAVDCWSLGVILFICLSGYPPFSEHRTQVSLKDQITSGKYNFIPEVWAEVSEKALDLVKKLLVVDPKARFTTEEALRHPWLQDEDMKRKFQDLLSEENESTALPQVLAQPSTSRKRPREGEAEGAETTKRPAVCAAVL

Paired box protein Pax-8, sequence (Q06710 whole entry): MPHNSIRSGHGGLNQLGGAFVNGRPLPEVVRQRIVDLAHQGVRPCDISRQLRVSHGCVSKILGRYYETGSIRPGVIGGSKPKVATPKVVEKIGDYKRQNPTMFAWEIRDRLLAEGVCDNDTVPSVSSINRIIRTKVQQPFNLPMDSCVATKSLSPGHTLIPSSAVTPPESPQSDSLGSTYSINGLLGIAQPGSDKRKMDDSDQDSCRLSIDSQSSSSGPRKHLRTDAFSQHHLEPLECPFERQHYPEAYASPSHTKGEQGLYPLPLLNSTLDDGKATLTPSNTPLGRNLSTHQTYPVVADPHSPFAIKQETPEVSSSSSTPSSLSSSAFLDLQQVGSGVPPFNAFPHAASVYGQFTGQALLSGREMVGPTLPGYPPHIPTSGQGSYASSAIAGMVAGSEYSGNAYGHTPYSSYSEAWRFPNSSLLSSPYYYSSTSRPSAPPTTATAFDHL

COc1cccc(/C=N/Nc2cc(C)nc(-c3ccccc3O)n2)c1O
inconclusive: EC50 [2] 5.22 µM | EC50 (Protein RecA) 357 µM
active: AC50 (Paired box protein Pax-8) 5.5 µM | EC50 [1] 0.876 µM | CC50 [3] 5.1 µM | EC50 [4] 0.294 µM | IC50 [5] 2.91 µM | AC50 [6] 16.2 µM | IC50 [8] 3.31 µM | EC50 (Streptococcus) 6.64 µM | AC50 [10] 30.1 µM | AC50 (INS1) 1.93 µM
inactive: IC50 (Orexin receptor type 2 [7]) > 50 µM | IC50 (CHO-K1) > 66.2 µM | IC50 [9] > 49.8 µM | IC50 (Orexin receptor type 2 [11]) 11.9 µM
> 150 µM (not active): EC50 (Streptokinase A)

Fc1ccc2c(c1)-c1n[nH]cc1CS2
active: Ki [12] 15.8 µM | Ki [13] 6.31 µM | Ki [14] 10 µM | Ki [15] 12.6 µM | Ki (Aurora kinase A) 5.01 µM | Ki [16] 6.31 µM
